Format in all cases: biochemical
Test [1] addresses T1, JAK1 (aa 850-1154, catalytic domain, GST-tag) (Homo sapiens, UniProt P23458).
T1 construct: JAK1 (aa 850-1154) and TYK2 (aa 871-1187) are expressed with an N-terminally fused GST-tag; GST (N); purchased Carna Biosciences, Inc; host or cells: baculovirus expression system
In words: JAK kinase assay (HTRF, phosphorylation of TK substrate-biotin), JAK1. Conditions: ATP at Km (7 μM), read-out: JAK1 kinase inhibitory activity (EC50 indicator). Here is the method:
(§1) Human baculovirus-expressed JAK1, 2, 3 and TYK2 were purchased from Carna Biosciences, Inc. All four purified enzymes contain only the catalytic domain. JAK1 (aa 850-1154) and TYK2 (aa 871-1187) are expressed with an N-terminally fused GST-tag, and JAK2 and JAK3 with an N-terminally fused His-tag.
(§2) Inhibition of phosphorylation of a synthetic peptide was measured in an HTRF-based assay using the TK substrate-Biotin from the Cisbio HTRFKinEASE TK kit. First, 2 μl of TK solution (TK substrate-biotin in kinase buffer [1× enzymatic buffer from HTRFKinEASE TK kit, 1 mM DTT]) is added to a plate containing 1 μl prediluted compound (final assay concentration DMSO: 0.75%). Then, 5 μl kinase-ATP mix (prepared in kinase buffer) is added to the wells and the plates are incubated at RT for 20-30 min. For all four kinases a concentration of ATP that corresponded to the Km for ATP was used. The final concentrations of buffers, substrate, kinase and ATP were: JAK1: 50 mM Hepes buffer pH 7.0, 0.01% BSA, 10 mM MgCl2, 1 mM DTT, 7 μM ATP, 50 nM SEB, 1 μM TK Substrate-Biotin and 5 ng JAK1; JAK2: 50 mM Hepes buffer pH 7.0, 0.01% BSA, 5 mM MgCl2, 1 mM DTT, 4 μM ATP, 1 μM TK Substrate-Biotin and 0.1 ng JAK2; JAK3: 50 mM Hepes buffer pH 7.0, 0.01% BSA, 5 mM MgCl2, 1 mM DTT, 2 μM ATP, 1 μM TK Substrate-Biotin and 0.3 ng JAK3; TYK2: 50 mM Hepes buffer pH 7.0, 0.01% BSA, 5 mM MgCl2, 1 mM DTT, 13 μM ATP, 50 nM SEB, 1 μM TK Substrate-Biotin and 0.8 ng TYK2. Thereafter, the kinase reaction is stopped by adding 4 μl detection mix (final concentrations: 50 mM Hepes buffer pH 7.0, 0.01% BSA, 0.8 M KF, 20 mM EDTA, 42 nM Streptavidin-XL665 and 1:400 STK Ab Cryptate) and the plates are incubated overnight in the dark. The HTRF signal is read using an Envision plate reader.
(§3) In Table 1 selected JAK kinase inhibitory activities are listed with the following indicators: I: EC50<100 nM, II: 100 nM≦EC50≦500 nM and III: EC50>500 nM

In test [2] the target is T2, JAK2 (catalytic domain, His-tag) (Homo sapiens, UniProt O60674).
T2 construct: All four purified enzymes contain only the catalytic domain; His (N); purchased Carna Biosciences, Inc; host or cells: baculovirus expression system
T2 sequence (O60674 849-1124 limits assumed): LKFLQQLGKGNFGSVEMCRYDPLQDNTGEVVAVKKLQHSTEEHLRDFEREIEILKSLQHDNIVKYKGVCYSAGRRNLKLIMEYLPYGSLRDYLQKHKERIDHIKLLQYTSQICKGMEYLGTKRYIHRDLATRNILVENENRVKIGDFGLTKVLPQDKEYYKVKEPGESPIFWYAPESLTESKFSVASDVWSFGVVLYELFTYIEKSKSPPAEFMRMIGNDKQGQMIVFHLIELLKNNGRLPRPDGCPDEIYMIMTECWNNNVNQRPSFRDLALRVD
Briefly: JAK kinase assay (HTRF, phosphorylation of TK substrate-biotin), JAK2. Conditions: ATP at Km (4 μM), read-out: JAK2 kinase inhibitory activity (EC50 indicator). As for the experimental part: as §1, §2, §3

The target of test [3] is T3, JAK3 (catalytic domain, His-tag) (Homo sapiens, UniProt P52333).
T3 construct: All four purified enzymes contain only the catalytic domain; His (N); purchased Carna Biosciences, Inc; host or cells: baculovirus expression system
T3 sequence (P52333 822-1111 limits assumed): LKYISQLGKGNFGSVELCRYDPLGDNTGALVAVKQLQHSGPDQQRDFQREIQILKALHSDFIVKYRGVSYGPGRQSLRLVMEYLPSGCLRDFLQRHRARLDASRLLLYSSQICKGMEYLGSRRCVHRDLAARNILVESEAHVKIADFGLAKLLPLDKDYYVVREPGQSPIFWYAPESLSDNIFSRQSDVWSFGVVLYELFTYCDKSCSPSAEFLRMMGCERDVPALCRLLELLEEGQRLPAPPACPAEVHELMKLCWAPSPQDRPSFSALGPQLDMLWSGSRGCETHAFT
Briefly: JAK kinase assay (HTRF, phosphorylation of TK substrate-biotin), JAK3. Conditions: ATP at Km (2 μM), read-out: JAK3 kinase inhibitory activity (EC50 indicator). As for the experimental part:
as §1, §2, §3

The target of test [4] is T4, TYK2 (aa 871-1187, catalytic domain, GST-tag) (Homo sapiens, UniProt P29597).
T4 construct: JAK1 (aa 850-1154) and TYK2 (aa 871-1187) are expressed with an N-terminally fused GST-tag; GST (N); purchased Carna Biosciences, Inc; host or cells: baculovirus expression system
T4 sequence (P29597 871-1187): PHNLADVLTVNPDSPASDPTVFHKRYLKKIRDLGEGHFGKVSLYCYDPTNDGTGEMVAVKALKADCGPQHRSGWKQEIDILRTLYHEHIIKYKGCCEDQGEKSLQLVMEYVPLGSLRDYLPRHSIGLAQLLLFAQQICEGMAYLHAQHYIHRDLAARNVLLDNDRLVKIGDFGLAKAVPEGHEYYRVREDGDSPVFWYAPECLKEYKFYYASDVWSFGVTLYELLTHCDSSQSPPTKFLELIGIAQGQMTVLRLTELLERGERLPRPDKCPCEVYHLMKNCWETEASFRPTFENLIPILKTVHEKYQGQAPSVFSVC
In words: JAK kinase assay (HTRF, phosphorylation of TK substrate-biotin), TYK2. Conditions: ATP at Km (13 μM), read-out: TYK2 kinase inhibitory activity (EC50 indicator). Here is the method: as §1, §2, §3

Read-outs that look alike come from different tables or passages of the source.

T1 sequence (P23458 850-1154): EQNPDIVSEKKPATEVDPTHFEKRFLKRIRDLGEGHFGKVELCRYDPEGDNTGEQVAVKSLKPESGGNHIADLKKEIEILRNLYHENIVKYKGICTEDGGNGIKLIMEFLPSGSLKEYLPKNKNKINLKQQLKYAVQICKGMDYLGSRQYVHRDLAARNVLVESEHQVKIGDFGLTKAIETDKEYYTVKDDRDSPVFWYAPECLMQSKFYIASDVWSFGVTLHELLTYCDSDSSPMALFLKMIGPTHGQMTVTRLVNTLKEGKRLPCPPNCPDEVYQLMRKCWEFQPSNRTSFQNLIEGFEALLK

`O=C(c1ccccc1)N1C[C@@H]2C[C@H]1CN2c1ncnc2[nH]ccc12` (racemic) [Example 253, Phenyl-[5-(7H-pyrrolo[2,3-d]pyrimidin-4-yl)-2,5-diaza-bicyclo[2.2.1]hept-2-yl]-methanone]: the 50% effective concentration (EC50) in test [1] (HTRF assay), in test [2] (HTRF assay), in test [3] (HTRF assay) and in test [4] (HTRF assay) was greater than 500 nM throughout.
Turning to `O=C(c1ccc(C(F)(F)F)cc1)N1[C@@H]2CC[C@H]1CN(c1ncnc3[nH]ccc13)C2` [Example 1, [3-(7H-Pyrrolo[2,3-d]pyrimidin-4-yl)-3,8-diazabicyclo[3.2.1]oct-8-yl]-(4-trifluoromethylphenyl)methanone], the EC50 in test [1] was less than 100 nM; in test [2], 100 to 500 nM; in test [3] it was greater than 500 nM; in test [4], greater than 500 nM.
`O=C(c1ccccn1)N1CCN(c2ncnc3[nH]ccc23)CC12CC2` [Example 2, Pyridin-2-yl-[7-(7H-pyrrolo[2,3-d]pyrimidin-4-yl)-4,7-diazaspiro[2.5]oct-4-yl]methanone]: the EC50 in test [1] is less than 100 nM; in test [2] it was less than 100 nM; in test [3], 100 to 500 nM; in test [4], 100 to 500 nM.
`O=C(c1ccncc1)N1CCN(c2ncnc3[nH]ccc23)CC12CC2` [Example 3, Pyridin-4-yl-[7-(7H-pyrrolo[2,3-d]pyrimidin-4-yl)-4,7-diazaspiro[2.5]oct-4-yl]-methanone]: the EC50 in test [1] is less than 100 nM; in test [2] it was less than 100 nM; in test [3], 100 to 500 nM; in test [4], 100 to 500 nM.
With `O=C(Cc1cccnc1)N1CCN(c2ncnc3[nH]ccc23)CC12CC2` [Example 4, 2-Pyridin-3-yl-1-[7-(7H-pyrrolo[2,3-d]pyrimidin-4-yl)-4,7-diazaspiro[2.5]oct-4-yl]ethanone], the concentration giving a half-maximal response (EC50) is 100 to 500 nM in test [1], less than 100 nM in test [2], 100 to 500 nM in test [3] and greater than 500 nM in test [4].
As for `O=C(c1ccc(-c2ccccc2)cc1)N1CCN(c2ncnc3[nH]ccc23)CC12CC2` [Example 5, Biphenyl-4-yl-[7-(7H-pyrrolo[2,3-d]pyrimidin-4-yl)-4,7-diazaspiro[2.5]oct-4-yl]methanone], the EC50 in test [1] is less than 100 nM; in test [2], less than 100 nM; in test [3], 100 to 500 nM; in test [4], greater than 500 nM.
Take `O=C(c1cccc(-c2ccccc2)c1)N1CCN(c2ncnc3[nH]ccc23)CC12CC2` [Example 6, Biphenyl-3-yl-[7-(7H-pyrrolo[2,3-d]pyrimidin-4-yl)-4,7-diazaspiro[2.5]oct-4-yl]methanone]: the half-maximal effective concentration (EC50) was less than 100 nM in test [1], less than 100 nM in test [2], 100 to 500 nM in test [3] and 100 to 500 nM in test [4].
Turning to `O=C(C1CCOC1)N1CCN(c2ncnc3[nH]ccc23)CC12CC2` (centres unmarked) [Example 7, [7-(7H-Pyrrolo[2,3-d]pyrimidin-4-yl)-4,7-diazaspiro[2.5]oct-4-yl]-(tetrahydrofuran-3-yl)methanone], the EC50 in test [1] was 100 to 500 nM; in test [2], less than 100 nM; in test [3], 100 to 500 nM; in test [4], greater than 500 nM.
Take `CC(C#N)c1cccc(C(=O)N2CCN(c3ncnc4[nH]ccc34)CC23CC3)c1` (centres unmarked) [Example 8, 2-{3-[7-(7H-Pyrrolo[2,3-d]pyrimidin-4-yl)-4,7-diazaspiro[2.5]octane-4-carbonyl]phenyl}propionitrile]: the EC50 is less than 100 nM in test [1], less than 100 nM in test [2], 100 to 500 nM in test [3] and greater than 500 nM in test [4].
On to `CC(C)(C)OC(=O)N1[C@@H]2CC[C@H]1CN(c1ncnc3[nH]ccc13)C2` [Example 9, 3-(7H-Pyrrolo[2,3-d]pyrimidin-4-yl)-3,8-diaza-bicyclo[3.2.1]octane-8-carboxylic acid tert-butyl ester], for which the EC50 in test [1] is 100 to 500 nM; in test [2] it was less than 100 nM; in test [3], 100 to 500 nM; in test [4] it was greater than 500 nM.
Consider `CC(C)CNC(=S)N1[C@@H]2CC[C@H]1CN(c1ncnc3[nH]ccc13)C2` [Example 10, 3-(7H-Pyrrolo[2,3-d]pyrimidin-4-yl)-3,8-diaza-bicyclo[3.2.1]octane-8-carbothioic acid isobutyl-amide], for which the EC50 in test [1] was 100 to 500 nM; in test [2], 100 to 500 nM; in test [3] it was greater than 500 nM; in test [4], greater than 500 nM.
As for `S=C(NCc1ccccc1)N1[C@@H]2CC[C@H]1CN(c1ncnc3[nH]ccc13)C2` [Example 11, 3-(7H-Pyrrolo[2,3-d]pyrimidin-4-yl)-3,8-diazabicyclo[3.2.1]octane-8-carbothioic acid benzylamide], the concentration for a half-maximal effect (EC50) was less than 100 nM in test [1], less than 100 nM in test [2], 100 to 500 nM in test [3] and greater than 500 nM in test [4].
Turning to `COCCOC(=O)N1[C@@H]2CC[C@H]1CN(c1ncnc3[nH]ccc13)C2` [Example 12, 3-(7H-Pyrrolo[2,3-d]pyrimidin-4-yl)-3,8-diazabicyclo[3.2.1]octane-8-carboxylic acid 2-methoxyethyl ester], the EC50 in test [1] is 100 to 500 nM; in test [2], 100 to 500 nM; in test [3], greater than 500 nM; in test [4] it was greater than 500 nM.
For `O=C(C1CCS(=O)(=O)CC1)N1CCN(c2ncnc3[nH]ccc23)CC12CC2` [Example 13, (1,1-Dioxo-hexahydro-1lambda*6*-thiopyran-4-yl)[7-(7H-pyrrolo[2,3-d]pyrimidin-4-yl)-4,7-diazaspiro[2.5]oct-4-yl]methanone], the concentration for a half-maximal effect (EC50) in test [1] was 100 to 500 nM; in test [2], 100 to 500 nM; in test [3] it was 100 to 500 nM; in test [4] it was greater than 500 nM.
Take `O=C(Cc1c[nH]c2ccccc12)N1CCN(c2ncnc3[nH]ccc23)CC12CC2` [Example 14, 2-(1H-Indol-3-yl)-1-[7-(7H-pyrrolo[2,3-d]pyrimidin-4-yl)-4,7-diazaspiro[2.5]oct-4-yl]ethanone]: the EC50 in test [1] was 100 to 500 nM; in test [2], less than 100 nM; in test [3], 100 to 500 nM; in test [4], greater than 500 nM.
With `N#Cc1ccc(C(=O)N2CCN(c3ncnc4[nH]ccc34)CC23CC3)cc1` [Example 15, 4-[7-(7H-Pyrrolo[2,3-d]pyrimidin-4-yl)-4,7-diazaspiro[2.5]octane-4-carbonyl]benzonitrile], the EC50 was less than 100 nM in test [1], less than 100 nM in test [2], 100 to 500 nM in test [3] and 100 to 500 nM in test [4].
With `O=C(c1c[nH]c2ccccc12)N1CCN(c2ncnc3[nH]ccc23)CC12CC2` [Example 16, (1H-Indol-3-yl)-[7-(7H-pyrrolo[2,3-d]pyrimidin-4-yl)-4,7-diazaspiro[2.5]oct-4-yl]methanone], the EC50 in test [1] was less than 100 nM; in test [2] it was less than 100 nM; in test [3] it was less than 100 nM; in test [4] it was 100 to 500 nM.

(Values after patent US9346809B2 (LEO PHARMA A/S, priority 2009, dated 2016).)
